The source of these data is US11401271B2, “Fused heterocyclic compound, pyrazole-ring-containing fused heterocyclic compound, agricultural composition containing thereof, and method of using the composition” (SOUTH CHINA AGRICULTURAL UNIVERSITY, priority 2017, dated 2022).

Type in all cases: in vivo
The subject of one data set is Aphis craccivora. Nature of the data set: whole plant or invertebrate. The following applies: Aphis craccivora, read-out: Aphis craccivora Mortality (%) 500 ppm. The method, boiled down: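 Wingless adults feeding on bean sprouts were dipped with the sprouts for 5 s in 500 ppm compound in aqueous 0.05% Tween-80, air-dried, then held at 23° C. Dead aphids counted after 24 h, triplicate, with 0.05% Tween-80 as control. Mortality (%) = (control live − treated live)/control live × 100.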

The next data set has as its system Bombyx mori L. Description: Toxicity test on 2nd-instar larvae of Bombyx mori L., leaf immersion feeding method. The conditions noted are these: 1000 ppm, 24 hours. The method, boiled down:
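Second-instar silkworm larvae (~35 per vessel, 3 replicates) fed mulberry leaves dipped 5 s in 1000 ppm compound (0.05% Tween-80; DMSO stock diluted), held at 25 °C. Deaths counted after 24 hours; mortality % corrected against Tween-80 control survivors.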

The subject of the next data set is Spodoptera exigua. Nature of the data set: whole plant or invertebrate. The following applies: Spodoptera exigua, read-out: Spodoptera exigua Mortality (%) 500 ppm. In short, it runs like this: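 Cabbage leaf discs dipped 5 s in 500 ppm compound (0.05% Tween-80 aqueous), air-dried, fed to about 35 2nd-instar larvae at 28° C, three replicates. Deaths counted at 24 h; mortality corrected against Tween-80 control.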

The next data set deals with Solenopsis invicta. Nature of the data set: whole plant or invertebrate. The conditions noted are these: Solenopsis invicta, water test tube poison-feeding. The method, boiled down:
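Fire ants fed compound by water test-tube poison-feeding at 100 ppm in aqueous 0.05% Tween-80/5% honey (from 10 g/L DMSO stock), kept at 25 °C. Live and dead ants counted at 24 and 72 h; mortality (%) calculated relative to live ants in the untreated control.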

Another data set has as its system Apis cernan. Nature of the data set: Toxicity test on adult worker bees of Apis cernan, small beaker method. The following applies: 500 ppm, 48 hours. The method, boiled down:
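Same-size adult Apis cernan workers, collected the test morning, exposed in groups of 15 to cotton soaked with 500 ppm test liquid (small beaker method). Kept sealed in a dark climate box; live and dead bees counted after 48 h.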

Another data set relates to Plutella xylostella. Description: whole plant or invertebrate. The following applies: Plutella xylostella, read-out: Plutella xylostella Mortality (%) 500 ppm. The method, boiled down:
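Cabbage leaf discs dipped 5 s in compound at 500 ppm (0.05% Tween-80 aqueous), air-dried, fed to about 35 2nd-instar larvae at 28° C., triplicate. Dead larvae counted after 24 h; mortality (%) corrected against Tween-80 control.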

[1] abbreviates: 24 h, read-out: Solenopsis invicta Mortality (%) 100 ppm 24 h, 100 ppm, 24 h.
Where [2] appears, read: 72 h, read-out: Solenopsis invicta Mortality (%) 100 ppm 72 h, 100 ppm, 72 h.

Where two headings read alike, the source gives them in different places.

As to `CNC(=O)N1c2c(C#N)c(SC)nn2-c2ccccc2C1(F)C(F)(F)F` (centres unmarked) [Compound A32], the mortality at 500 ppm with Aphis craccivora (24 h) was found to be 100%; with Spodoptera exigua (24 h), 90%; with Plutella xylostella, 100%. The “Toxicity determination Bombyx mori L. Mortality (%)” value in the data set on Bombyx mori L. is 10%. For the same compound, the mortality at 100 ppm came out at 26% with Solenopsis invicta (setting [1]) and 93% in the data set with Solenopsis invicta (setting [2]). Moreover, the “Toxicity determination Apis cernan Mortality (%)” value with Apis cernan came to 4%.

Regarding `COC(=O)C1(CC#N)Nc2c([S+]([O-])C(F)(F)F)c(C#N)nn2-c2c(Cl)cc(C(F)(F)F)cc21` (centres unmarked) [Compound C31], the mortality at 500 ppm in the data set on Aphis craccivora (24 h), in the data set on Spodoptera exigua (24 h) and with Plutella xylostella was 100% in each case. Besides, in the data set on Bombyx mori L., the “Toxicity determination Bombyx mori L. Mortality (%)” value is given as 3%. In addition, the values for the mortality at 100 ppm in the data set with Solenopsis invicta (setting [1]) and in the data set on Solenopsis invicta (setting [2]) were 34% and 100%, respectively. Also, in the data set with Apis cernan, the “Toxicity determination Apis cernan Mortality (%)” value is reported as 8%.

For the compound `COC(=O)Nc1ccc2c(c1)-n1cc(C#N)c(C#N)c1NC2(C#N)C#N` [Compound B11], the mortality at 500 ppm stood at 100% in the data set on Aphis craccivora (500 ppm, wingless adults, impregnation method, 24 hours); 100% with Spodoptera exigua (500 ppm, 2nd-instar larvae, leaf immersion feeding, 24 hours); 100% in the data set on Plutella xylostella (500 ppm, 2nd-instar larvae, leaf immersion feeding). For the same compound, in the data set on Bombyx mori L., the “Toxicity determination Bombyx mori L. Mortality (%)” value is recorded as 7%. The mortality at 100 ppm in the data set with Solenopsis invicta (24 h, 100 ppm, 24 h, read-out: Solenopsis invicta Mortality (%) 100 ppm 24 h) was determined as 33%; with Solenopsis invicta (72 h, 100 ppm, 72 h, read-out: Solenopsis invicta Mortality (%) 100 ppm 72 h), 95%. Further, the “Toxicity determination Apis cernan Mortality (%)” value in the data set on Apis cernan is on record as 3%.

For `CCc1nn2c(c1-c1cc(C)sc1C)NC(/C=C\C(=O)OC)(/C=C/C(=O)OC)c1cc(C(F)(F)F)cc(Cl)c1-2` (centres unmarked) [Compound C64], the mortality at 500 ppm with Aphis craccivora (24 h) turned out to be 100%; in the data set with Spodoptera exigua (24 h), 97%; in the data set with Plutella xylostella it was 92%. Besides, the “Toxicity determination Bombyx mori L. Mortality (%)” value in the data set with Bombyx mori L. was 7%. Also, the mortality at 100 ppm in the data set on Solenopsis invicta (setting [1]) was found to be 17%; in the data set with Solenopsis invicta (setting [2]) it was 90%. The “Toxicity determination Apis cernan Mortality (%)” value with Apis cernan is 9%.

As to `CNC(=O)C1(CC(=O)OC)Nc2c([S+](C)[O-])c(C(C)=O)nn2-c2c(Cl)cc(C(F)(F)F)cc21` (centres unmarked) [Compound C46], the mortality at 500 ppm was found to be 90% in the data set on Aphis craccivora (24 h), 91% with Spodoptera exigua (24 h) and 89% with Plutella xylostella. Moreover, the “Toxicity determination Bombyx mori L. Mortality (%)” value in the data set on Bombyx mori L. amounted to 5%. Besides, the mortality at 100 ppm in the data set with Solenopsis invicta (setting [1]) was 21%; in the data set on Solenopsis invicta (setting [2]), 80%. In the data set with Apis cernan, the “Toxicity determination Apis cernan Mortality (%)” value was 3%.

Turning to `CNC(=O)Nc1ccc2c(c1)-n1cc(C#N)c(C#N)c1NC2(C#N)C#N` [Compound B12], the mortality at 500 ppm in the data set with Aphis craccivora (24 h), in the data set with Spodoptera exigua (24 h) and in the data set with Plutella xylostella was 100% throughout. The “Toxicity determination Bombyx mori L. Mortality (%)” value in the data set on Bombyx mori L. came to 5%. Also, the results for the mortality at 100 ppm in the data set with Solenopsis invicta (setting [1]) and with Solenopsis invicta (setting [2]) were 40% and 100%, respectively. In the data set with Apis cernan, the “Toxicity determination Apis cernan Mortality (%)” value was 6%.

Regarding `N#Cc1cn2c(c1C#N)NC(C#N)(C#N)c1ccc([N+](=O)[O-])cc1-2` [Compound B6], the mortality at 500 ppm in the data set with Aphis craccivora (24 h) is 100%; in the data set on Spodoptera exigua (24 h) it was 100%; in the data set with Plutella xylostella, 90%. In the data set with Bombyx mori L., the “Toxicity determination Bombyx mori L. Mortality (%)” value is reported as 4%. The mortality at 100 ppm in the data set with Solenopsis invicta (setting [1]) turned out to be 44%; with Solenopsis invicta (setting [2]), 100%. Further, in the data set on Apis cernan, the “Toxicity determination Apis cernan Mortality (%)” value is reported as 5%.

For `N#Cc1nn2c(c1[S+]([O-])C(F)(F)F)NC(CC(=O)O)(C(=O)O)c1cc(C(F)(F)F)cc(Cl)c1-2` (centres unmarked) [Compound C36], the figures for the mortality at 500 ppm in the data set on Aphis craccivora (24 h), in the data set on Spodoptera exigua (24 h) and in the data set with Plutella xylostella were 100%, 90% and 90%, respectively. For the same compound, in the data set on Bombyx mori L., the “Toxicity determination Bombyx mori L. Mortality (%)” value amounted to 2%. Also, the values for the mortality at 100 ppm in the data set on Solenopsis invicta (setting [1]) and with Solenopsis invicta (setting [2]) were 10% and 90%, respectively. The “Toxicity determination Apis cernan Mortality (%)” value with Apis cernan is listed as 3%.

Consider `C=CC1(CCl)Nc2c([S+]([O-])C(F)(F)F)c(C#N)nn2-c2c(Cl)cc(C(F)(F)F)cc21` (centres unmarked) [Compound C13], for which the mortality at 500 ppm in the data set with Aphis craccivora (24 h), in the data set on Spodoptera exigua (24 h) and in the data set on Plutella xylostella was 100% in each case. Further, the “Toxicity determination Bombyx mori L. Mortality (%)” value in the data set on Bombyx mori L. came out at 12%. In addition, the values for the mortality at 100 ppm in the data set on Solenopsis invicta (setting [1]) and in the data set with Solenopsis invicta (setting [2]) were 32% and 100%, respectively. For the same compound, in the data set on Apis cernan, the “Toxicity determination Apis cernan Mortality (%)” value stood at 10%.

As for `CS(=O)(=O)Nc1ccc2c(c1)-n1cc(C#N)c(C#N)c1NC2(C#N)C#N` [Compound B10], the mortality at 500 ppm in the data set on Aphis craccivora (24 h) is 100%; in the data set on Spodoptera exigua (24 h), 95%; in the data set on Plutella xylostella, 100%. Further, the “Toxicity determination Bombyx mori L. Mortality (%)” value with Bombyx mori L. is reported as 3%. The mortality at 100 ppm in the data set with Solenopsis invicta (setting [1]) stood at 30%; with Solenopsis invicta (setting [2]), 90%. Besides, the “Toxicity determination Apis cernan Mortality (%)” value with Apis cernan amounted to 3%.

Take `C=CC1(CC(F)(F)F)Nc2c([S+]([O-])C(F)(F)F)c(C#N)nn2-c2c(Cl)cc(C(F)(F)F)cc21` (centres unmarked) [Compound C14]: the mortality at 500 ppm with Aphis craccivora (24 h), in the data set on Spodoptera exigua (24 h) and in the data set on Plutella xylostella was 100% in each case. The “Toxicity determination Bombyx mori L. Mortality (%)” value in the data set with Bombyx mori L. came out at 10%. Besides, the mortality at 100 ppm in the data set on Solenopsis invicta (setting [1]) is 30%; in the data set with Solenopsis invicta (setting [2]) it was 100%. For the same compound, the “Toxicity determination Apis cernan Mortality (%)” value in the data set on Apis cernan was found to be 10%.

As for `O=[N+]([O-])c1cc2n(n1)-c1cnccc1C(F)(CC(F)(F)F)N2` (centres unmarked) [Compound A43], the mortality at 500 ppm with Aphis craccivora (24 h), with Spodoptera exigua (24 h) and with Plutella xylostella was 100% each time. In addition, the “Toxicity determination Bombyx mori L. Mortality (%)” value in the data set on Bombyx mori L. is 3%. Moreover, the mortality at 100 ppm with Solenopsis invicta (setting [1]) is 20%; in the data set with Solenopsis invicta (setting [2]), 100%. The “Toxicity determination Apis cernan Mortality (%)” value in the data set with Apis cernan amounted to 8%.

Regarding `COc1ccc(-c2cn3c(c2C#N)NC(C#N)(C#N)c2ccc([N+](=O)[O-])cc2-3)cc1` [Compound B1, 2-(4-methoxybenzene)-8-nitropyrrole[1,2-α]quinazoline-3,5,5(4H)-tricyano], the mortality at 500 ppm in the data set with Aphis craccivora (24 h), in the data set with Spodoptera exigua (24 h) and with Plutella xylostella was 100% each time. Also, the “Toxicity determination Bombyx mori L. Mortality (%)” value in the data set with Bombyx mori L. worked out at 0%. For the same compound, the mortality at 100 ppm with Solenopsis invicta (setting [1]) came out at 20%; in the data set with Solenopsis invicta (setting [2]), 100%. The “Toxicity determination Apis cernan Mortality (%)” value in the data set on Apis cernan worked out at 0%.

For `CC[S+]([O-])c1c(C#N)nn2c1NC(CO)(CC#N)c1cc(C(F)(F)F)cc(Cl)c1-2` (centres unmarked) [Compound C25], the mortality at 500 ppm worked out at 86% in the data set on Aphis craccivora (24 h), 97% in the data set with Spodoptera exigua (24 h) and 92% in the data set with Plutella xylostella. The “Toxicity determination Bombyx mori L. Mortality (%)” value in the data set with Bombyx mori L. was determined as 3%. In addition, the figures for the mortality at 100 ppm in the data set on Solenopsis invicta (setting [1]) and with Solenopsis invicta (setting [2]) were 25% and 71%, respectively. Further, the “Toxicity determination Apis cernan Mortality (%)” value with Apis cernan is listed as 0%.

`Nc1ccc2c(c1)-n1nc(C(F)(F)F)c(SC(F)(F)F)c1NC2(C(F)(F)F)C(F)(F)F` [Compound A13]: the mortality at 500 ppm in the data set on Aphis craccivora (24 h), with Spodoptera exigua (24 h) and in the data set on Plutella xylostella was 100% each time. Also, the “Toxicity determination Bombyx mori L. Mortality (%)” value in the data set on Bombyx mori L. is reported as 17%. Besides, the mortality at 100 ppm in the data set on Solenopsis invicta (setting [1]) came out at 20%; in the data set on Solenopsis invicta (setting [2]), 100%. In addition, in the data set on Apis cernan, the “Toxicity determination Apis cernan Mortality (%)” value was determined as 17%.

With `C=CC1(C=C)Nc2c(Br)c(CC)nn2-c2c(Cl)cc(C(F)(F)F)cc21` [Compound C61], the figures for the mortality at 500 ppm in the data set on Aphis craccivora (24 h), with Spodoptera exigua (24 h) and in the data set with Plutella xylostella were 90%, 100% and 88%, respectively. Moreover, the “Toxicity determination Bombyx mori L. Mortality (%)” value in the data set with Bombyx mori L. was determined as 9%. The mortality at 100 ppm with Solenopsis invicta (setting [1]) amounted to 28%; with Solenopsis invicta (setting [2]), 100%. In the data set on Apis cernan, the “Toxicity determination Apis cernan Mortality (%)” value worked out at 10%.

Turning to `CN(C)CC1(CC#N)Nc2c([S+]([O-])C(F)(F)F)c(C#N)nn2-c2c(Cl)cc(C(F)(F)F)cc21` (centres unmarked) [Compound C29], the mortality at 500 ppm in the data set on Aphis craccivora (24 h) was found to be 100%; with Spodoptera exigua (24 h), 93%; in the data set with Plutella xylostella it was 100%. Moreover, in the data set on Bombyx mori L., the “Toxicity determination Bombyx mori L. Mortality (%)” value stood at 0%. Besides, the mortality at 100 ppm in the data set with Solenopsis invicta (setting [1]) is 30%; in the data set with Solenopsis invicta (setting [2]), 100%. The “Toxicity determination Apis cernan Mortality (%)” value in the data set with Apis cernan was found to be 4%.
